Laboratory results published in PubChem BioAssay (NCI).
Values joined by “and” are separate entries in the source; they are usually repeats but may differ in a detail not shown here. Identical values can stand only once.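 Method: 48-hour compound exposure of cells in 96-well plates, five concentrations, linear interpolation of endpoints. Abbreviation: GI50, concentration required for 50% inhibition of growth. Definition used: TGI = concentration required for complete inhibition of growth.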

Columns and labels:
Assay in all cases: NCI anticancer screen, dose series, 48 h
NCI-H23 lung = test system: NCI-H23 lung
U251 CNS = test system: U251 CNS
HL-60(TB) leukemia = test system: HL-60(TB) leukemia
HOP-92 NSCLC = test system: HOP-92 NSCLC
OVCAR-3 ovarian = test system: OVCAR-3 ovarian
SN12C renal = test system: SN12C renal
DU-145 prostate = test system: DU-145 prostate
KM12 colon = test system: KM12 colon
TK-10 renal = test system: TK-10 renal
RXF 393 renal = test system: RXF 393 renal

SMILES | GI50 (NCI-H23 lung) [µM] | TGI (NCI-H23 lung) [µM] | GI50 (U251 CNS) [µM] | TGI (U251 CNS) [µM] | GI50 (HL-60(TB) leukemia) | TGI (HL-60(TB) leukemia) | GI50 (HOP-92 NSCLC) [µM] | TGI (HOP-92 NSCLC) [µM] | GI50 (OVCAR-3 ovarian) [µM] | TGI (OVCAR-3 ovarian) [µM] | GI50 (SN12C renal) [µM] | TGI (SN12C renal) [µM] | GI50 (DU-145 prostate) [µM] | TGI (DU-145 prostate) | GI50 (KM12 colon) [µM] | TGI (KM12 colon) [µM] | GI50 (TK-10 renal) [µM] | TGI (TK-10 renal) [µM] | GI50 (RXF 393 renal) [µM] | TGI (RXF 393 renal) [µM]
COc1ccc(C(=O)c2no[n+]([O-])c2C(=O)c2ccc(OC)cc2)cc1 | 2.94 | 8.74 | 2.53 | 7.07 | 2.08 µM | 4.37 µM | 1.72 | 3.96 | 1.87 | 3.31 | 9.06 | 22.1 | 14.5 | 27.6 µM | 8.91 | 22.4 | 1.41 | 2.82 | 2.25 | 5.93
O=C1/C(=C/c2ccc([N+](=O)[O-])s2)Oc2ccc(Br)cc21 | 0.549 | 2.22 | 0.211 | 0.482 | 0.487 µM | 7.5 µM | 0.21 | 0.606 | 0.207 | 0.409 | 0.567 | 2.93 | 1.43 | 2.9 µM | 0.247 | 0.623 | 0.389 | 4.66 | 0.274 | 0.813
Nc1ncnc2c1ncn2C1OC(F)(COS(N)(=O)=O)C(O)C1O (stereo not drawn) | > 100 | > 100 | > 100 | > 100 | > 100 µM | > 100 µM | 36.3 | > 100 | > 100 | > 100 | > 100 | > 100 | > 100 | > 100 µM | > 100 | > 100 | > 100 | > 100 | 97.9 | > 100
NC(=O)c1c(NC(=O)c2ccc(C(F)(F)F)cc2Cl)sc2c1CCC(=O)C2 | 0.288 | 1.68 | 0.27 | 1.75 | 0.273 µM | 1.09 µM | 0.426 | 2.88 | 0.369 | 1.33 | 0.36 | 2.04 | 3.83 | 25 µM | 0.382 | 1.73 | 0.423 | 4.07 | 0.259 | 0.881
O=C1c2ccccc2-n2c1nc1ccc([N+](=O)[O-])cc1c2=O |  | > 100 |  | > 100 |  | 43.5 µM |  | > 100 |  | 99.7 |  | > 100 |  | > 100 µM |  | > 100 |  | > 100 |  | > 100
O=C(Nc1cccc2[nH]c(C(F)(F)F)nc12)c1ccc(Br)cc1F | 3.12 | 10.6 |  |  | 3.05 µM | 16 µM | 1.38 | 4.1 | 3.62 | 16.8 | 3.1 | 10.8 | 4.87 | 20.5 µM | 3.29 | 12 | 3.43 | 9.55 | 3.1 | 9.12
O=C1C2C3C=CC(C2C(=O)N1CN1CCOCC1)C1C2C(=O)N(CN4CCOCC4)C(=O)C2C31 (stereo not drawn) |  | > 66.8 |  | > 63.2 |  | > 59.5 µM |  | > 93.8 |  | > 77.8 |  | > 64.4 |  | > 100 µM |  | > 63.4 |  | > 93.4 |  | > 65.2
CC(C)C[C@H](NC(=O)[C@@H](N)Cc1cccc2ccccc12)B(O)O | 0.245 |  | 0.392 |  | 0.0789 µM and 0.0291 µM | 50 µM and > 100 µM | 0.0288 |  | 0.187 |  | 1.39 |  | 0.0736 | 6.14 µM and 1.15 µM | 0.546 |  | 0.439 |  | 0.136 | 
COc1cccc(/C=C2\COc3ccc(O)c(O)c3C2=O)c1OC | 2.9 | 11.1 | 2 | 10.5 | 1.04 µM | > 100 µM | 2.69 | 8.81 | 1.16 | 2.85 | 2.77 | 12.9 | 2.61 | 10.4 µM | 1.67 | 3.92 | 2.36 | 8.19 | 1.76 | 3.42
O=c1oc2cc(O)ccc2cc1-c1nc2ccccc2o1 |  | > 100 |  | 93.5 |  | 70.6 µM |  | 78.3 |  | 61.8 |  | > 100 |  | > 100 µM |  | 93 |  | > 100 |  | 35.5
CCOC(=O)CCC(NC(=O)c1ccc(Oc2nc3cc(N)cc(N)c3nc2-c2ccccc2)cc1)C(=O)OCC (stereo not drawn) | 15.5 | 30.4 | > 100 | > 100 | 31.5 µM | 95 µM | 30.1 | > 100 | 16.2 | 41.2 |  |  | 62.2 | > 100 µM | 27.4 | > 100 | > 100 | > 100 | 43.9 | > 100
CN(C)Cc1c[nH]c2nc[nH]c(=O)c12 |  | > 100 |  | > 100 |  | 42.4 µM |  | 85.8 |  | > 100 |  | > 100 |  | 64.8 µM |  | > 100 |  | > 100 |  | 45.9
O=NN(CC(=O)NNc1ccccc1)CC(=O)NNc1ccccc1 | > 100 | > 100 | > 100 | > 100 | 0.534 µM | > 100 µM | > 100 | > 100 | 11.3 | > 100 | > 100 | > 100 | > 100 | > 100 µM | 0.893 | > 100 | > 100 | > 100 | > 100 | > 100
C=CC(=O)N1CCN(c2nc(OC[C@@H]3CCCN3C)nc3c(F)c(-c4nc(N)cc(C)c4C(F)(F)F)c(Cl)cc23)[C@@H](C)C1 |  | 1.34 | 1.96 | 5.05 | 2.91 µM | > 100 µM | 1.75 | 3.71 | 1.66 | 3.14 | 1.6 | 3.62 | 2.65 | 7.2 µM | 2.11 | 4.56 | 2.01 | 4.53 | 1.07 | 2.5
Cc1nc2ccccc2c(/C=C/c2ccc(C(F)(F)F)cc2)c1C(=O)/C=C/c1ccccc1 |  |  | 1.47 | 2.92 | 1.94 µM | 4.44 µM | 1.32 | 2.98 | 1.2 | 2.52 | 1.54 | 3.01 | 1.6 | 3.1 µM |  |  | 2.05 | 3.63 | 1.46 | 2.81
